Measurements as given in patent US20260137807A1, “COMPOSITIONS AND METHODS FOR DELIVERING A MACROMOLECULE TO A CELL” (AstraZeneca AB, priority 2022, published 2026).

Legend:
Assay type in all cases: cell-based
Huh7 Luc705 cells = assay: Splice switching activity assay (Luc705 luciferase reporter), Example 4A
Source text: (§1) HeLa Luc705 and Huh7 Luc705 cells were used to screen and characterize the SMC generated in Example 2 for their ability to increase levels of an SSO-induced splice variant by co-treatment of the cells with the SSO and SMC. The Luc705 reporter construct was used for quantitation of luciferase protein produced as a result of functional SSO delivery. (Kang et al. (1998) Biochemistry, 37(18):6235-6239; Rocha et al. (2016) Four Novel Splice-Switch Reporter Cell Lines: Distinct Impact of Oligonucleotide Chemistry and Delivery Vector on Biological Activity. Nucleic Acid Ther. 26(6):381). Briefly, a plasmid carrying the luciferase coding sequence interrupted by an insertion of intron 2 from β-globin pre-mRNA carrying a cryptic splice site was stably transfected into cells. Unless the aberrant slice site was masked by an antisense oligonucleotide, the pre-mRNA of luciferase was improperly processed.
(§2) HeLa Luc705 and Huh7 Luc705 cells were seeded in 96-well plates at 10,000 cells per well in growth media containing 1 μM Luc705-SSO and incubated to allow adherence and oligo internalization. After 24 hours, 10 μl of SMC diluted in Growth Media (DMEM+10% FBS) was added into each well. After 2 hours, media was removed from the wells and replaced with fresh growth media for 4 hours to allow for translation of the variant proteins. The media was then removed, and cells were lysed with 0.1% Triton-PBS.
(§3) To detect luciferase activity, 30 μL of cell lysate was transferred to white-walled 96-well plates. Luciferase intensity in each well was measured using a GloMax® 96 Microplate Luminometer machine (Promega) following auto-injection of 25 μL Luciferin substrate (Firefly Luciferase Assay System: Promega) per well. Photon measurements were acquired for 10 seconds, starting 2 seconds after injection.
(§4) To determine whether AZ4800 (Compound 2, FIG. 1B) and SSO must be present in the cell media simultaneously for Compound 2 to produce its synergistic effects, the treatment plan was modified from the UNC2383 treatment plan detailed by Wang et al. (2017) ACS Chem. Biol. 12(8):1999-2007 to include a 24 hour pre-treatment with SSO, followed by the addition of Compound 2 for two hours, followed by the removal of SSO and Compound 2, and finally a 4-hour protein translation period (FIG. 10).

HeLa Luc705 cells = assay: as above
Source text: as §1, §2, §3, §4

[1] = test system: different cell lines (mCherry-GAL9); assay: mCherry-GAL9 response between different cell lines; settings: 0.31 to 10 μM, 2 hours post-dosing, FIG. 41 and 48
Protocol: All of the stable cell lines generated from HeLa and Huh7 cells were maintained and cultivated in Dulbecco's modified Eagle's medium (DMEM) with high glucose with GlutaMAX (Gibco, cat. no. 31966-021), 10% fetal bovine serum (gibco, cat. no. 10270-106), and 1% penicillin-streptomycin (gibco, cat. no. 15140-122) at 37° C., 5% CO2 in 95% humidity in T75 TC flask (Sarstedt, 83.3911.002). The cells were detached (trypsin 0.25% EDTA, 10 min) and passaged twice a week. HEK293 and HeLa, HepG2, Huh7 and U2OS mCherry-GAL9 cell lines were maintained in DMEM, NCI-H358 mCherry-GAL9 were maintained in RPMI (Gibco: 32430-027) and SH-SY5Y mCherry-GAL9 were maintained in DMEM/F12 (Gibco: 32430-027). All growth media was supplemented with 10% FBS and 1 μg/ml Puromycin (Gibco: A11138-03) to maintain reporter expression. All cells were routinely tested and mycoplasma negative.
HeLa and Huh7 cells were further submitted to the mCherry-GAL9-recruitment analysis with treatment with select compounds and observed for endosomal rupture at various time points (1 hour, 2 hours, and 16 hours). GAL9 response results at different doses (1.25-5 μM) of the selected compounds are shown in FIG. 33 (Huh7 cells) and FIG. 34 (HeLa cells). […] FIG. 40 further provides additional results comparing time (0.25 to 4 hours), dose of select compounds (0.31 to 10 μM) and GAL9 response in Huh7 cells. […]

N2A_Luc705 cells = assay: Splice switching activity assay, 24 hr SMC treatment, Examples 4C/4D; settings: 2.5 μM compound, 1 μM SSO, FIG. 27
Protocol: (§5) U2OS_Luc705 and N2A_Luc705 cells were seeded in 96-well plates at 10,000 cells per well in growth media with 1 μM Luc705-SSO. The various SMCs were diluted directly into prepared growth media. After 24 hr to allow adherence and SSO internalization, 10 μl of diluted SMC was added into each well at indicated concentrations. For a positive control, SSOs were complexed with Lipofectamine 2000 for 30 min at RT and cells treated with a final concentration of 200 nM. ON concentrations above 200 nM would require LF2000 to be used in excess of the cells' toxicity threshold. After 24 hr treatment, cells were lysed with 0.1% TritonX-100 (Sigma Aldrich, cat no. X100) in 1× PBS (Gibco, cat no. 10010023).
(§6) For the detection of luciferase activity, 30 μL of cell lysate was transferred to white-walled plates. The luciferase intensity in each well was immediately measured via luminometer following auto-injection of 25 μL Luciferin substrate as per the Promega Firefly Luciferase Assay System. The timing parameters of photon measurements were optimized for this procedure.
as §5, with “The” for “U2OS_Luc705 and N2A_Luc705 cells were seeded in 96-well plates at 10,000 cells per well in growth media with 1 μM Luc705-SSO. The”

U2OS_Luc705 cells = assay: as above; settings: 2.5 μM compound, 1 μM SSO, FIG. 27
Protocol: as §5, §6
as §5, with “The” for “U2OS_Luc705 and N2A_Luc705 cells were seeded in 96-well plates at 10,000 cells per well in growth media with 1 μM Luc705-SSO. The”

Compound | increase in SSO activity with lengthened pre-treatment (Huh7 Luc705 cells; SSO pre-treatment 48 hours instead of 24, FIG. 12B) | SSO activity without the pre-treating step (Huh7 Luc705 cells; no pre-load, FIG. 13B) | increase in SSO activity (HeLa Luc705 cells; 1 μM SSO, 10, 5 or 1 μM compound for 2 hours, FIG. 2A) | increase in functional SSO activity (HeLa Luc705 cells; 5 μM compound, 1 μM SSO or 100 nM SSO, FIG. 2B) | SSO activity, preload only (HeLa Luc705 cells; SSO only pre-treated, removed when compound added, FIG. 11A) | increase in SSO activity with lengthened pre-treatment (HeLa Luc705 cells; SSO pre-treatment 48 hours instead of 24, FIG. 12A) | increase in SSO activity (HeLa Luc705 cells; co-treatment up to 5 μM, plateauing after 2 hours, FIG. 11C) | SSO activity without the pre-treating step (HeLa Luc705 cells; no pre-load, FIG. 13A) | GAL9 response between different cell lines [1] | activity of the oligo as compared to oligo only (N2A_Luc705 cells) | activity of the oligo as compared to oligo only (U2OS_Luc705 cells)
COc1nn(C2CCNCC2)cc1Nc1ncc(Cl)c(-n2ccc3c(C#N)cccc32)n1 [Compound 2] | more pronounced | significant activity was observed | substantially higher increase in SSO activity than UNC2383 | increase in activity | no activity was seen | more pronounced | 100 fold | significant activity was observed | – | – | –
COc1nn(C2CCNCC2)cc1Nc1ncc(F)c(-n2ccc3c(C#N)cccc32)n1 [Compound 4] | – | – | – | – | – | – | – | – | GAL9 responses across multiple cell lines of diverse background origins | enhanced activity of the oligo as compared to oligo only | enhanced activity of the oligo as compared to oligo only
